The results in this text go back to ChEMBL document CHEMBL5236659, “Design, synthesis and antitumor activity of novel thiophene- triazine derivatives bearing arylurea unit as potent PI3K/mTOR inhibitorss” (Bioorg Med Chem, 2023).

The target in assay [1] is T1, Phosphatidylinositol 4,5-bisphosphate 3-kinase catalytic subunit alpha isoform (Homo sapiens, UniProt P42336). The assay is described as follows: Inhibition of PI3Kalpha (unknown origin) at 1 uM by kinase-glo luminescent assay relative to control.
T1 sequence (P42336 whole entry, canonical isoform): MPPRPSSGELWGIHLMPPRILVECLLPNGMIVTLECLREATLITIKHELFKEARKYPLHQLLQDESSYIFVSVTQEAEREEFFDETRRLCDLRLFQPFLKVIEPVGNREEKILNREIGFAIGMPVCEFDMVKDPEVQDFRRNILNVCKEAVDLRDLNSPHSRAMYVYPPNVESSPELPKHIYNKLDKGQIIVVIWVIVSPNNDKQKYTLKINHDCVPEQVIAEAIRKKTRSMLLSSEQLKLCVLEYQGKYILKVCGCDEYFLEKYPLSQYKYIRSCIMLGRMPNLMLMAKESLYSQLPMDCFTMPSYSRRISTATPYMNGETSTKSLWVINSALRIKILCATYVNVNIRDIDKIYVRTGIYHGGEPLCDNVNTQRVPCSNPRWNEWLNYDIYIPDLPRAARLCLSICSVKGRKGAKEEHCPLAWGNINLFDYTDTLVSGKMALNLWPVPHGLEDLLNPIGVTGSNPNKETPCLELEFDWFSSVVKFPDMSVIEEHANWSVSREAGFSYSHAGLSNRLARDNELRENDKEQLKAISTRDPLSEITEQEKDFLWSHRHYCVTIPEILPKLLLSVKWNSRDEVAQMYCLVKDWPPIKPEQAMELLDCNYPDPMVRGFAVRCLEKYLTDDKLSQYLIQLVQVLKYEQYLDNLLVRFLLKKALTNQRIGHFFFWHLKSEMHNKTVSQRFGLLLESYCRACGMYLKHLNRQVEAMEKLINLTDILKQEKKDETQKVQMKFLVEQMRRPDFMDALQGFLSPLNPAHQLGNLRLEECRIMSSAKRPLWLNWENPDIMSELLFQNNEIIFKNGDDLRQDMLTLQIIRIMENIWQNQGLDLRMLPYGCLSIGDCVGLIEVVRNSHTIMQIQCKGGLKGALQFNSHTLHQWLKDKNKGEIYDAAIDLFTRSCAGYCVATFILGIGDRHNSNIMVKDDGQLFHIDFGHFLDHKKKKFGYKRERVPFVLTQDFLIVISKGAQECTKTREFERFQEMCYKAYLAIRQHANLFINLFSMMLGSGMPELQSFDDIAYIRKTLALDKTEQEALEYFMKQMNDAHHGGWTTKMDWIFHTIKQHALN
Assay [2] addresses T1, Phosphatidylinositol 4,5-bisphosphate 3-kinase catalytic subunit alpha isoform. Put plainly: Inhibition of PI3Kalpha (unknown origin) by kinase-glo luminescent assay.
A further assay relates to MCF7. The assay is described as follows: Antiproliferative activity against human MCF7 cells assessed as inhibition of cell growth incubated for 72 hrs by MTT assay. It counts as functional, cell-based. Particulars: MCF7, 72 h.
Assay [3] in a line: Antiproliferative activity against human OVCAR-2 cells assessed as inhibition of cell growth incubated for 72 hrs by MTT assay. The note with it: OVCAR-2, 72 h. The assay is classed as functional, cell-based.
Assay [4] is described as follows: Antiproliferative activity against human U-87 MG cells assessed as inhibition of cell growth incubated for 72 hrs by MTT assay. The assay is classed as functional, cell-based, U-87MG ATCC.
For another assay, the system named is A549. Put plainly: Antiproliferative activity against human A549 cells assessed as inhibition of cell growth incubated for 72 hrs by MTT assay. The note with it: A549, 72 h. It counts as functional, cell-based.
The test system of another assay is NCI-H460. The assay is described as follows: Antiproliferative activity against human NCI-H460 cells assessed as inhibition of cell growth incubated for 72 hrs by MTT assay. The assay is classed as functional, cell-based. The note with it: NCI-H460, 72 h.
For the next assay, the system named is NCI-H1975. Put plainly: Antiproliferative activity against human NCI-H1975 cells overexpressing EGFR L858R/T790M mutant assessed as inhibition of cell growth incubated for 72 hrs by MTT assay. The assay is classed as functional, cell-based. The note with it: NCI-H1975, 72 h.
Assay [5] deals with HeLa. The assay is described as follows: Antiproliferative activity against human HeLa cells assessed as inhibition of cell growth incubated for 72 hrs by MTT assay. It counts as functional, cell-based.
For assay [6], the system named is HeLa. The assay is described as follows: Antiproliferative activity against paclitaxel-resistant human HeLa cells assessed as inhibition of cell growth incubated for 72 hrs by MTT assay. It counts as functional, cell-based.
For assay [7], the target named is Serine/threonine-protein kinase mTOR (Homo sapiens, UniProt P42345). The assay is described as follows: Inhibition of mTOR (unknown origin) at 1 uM by kinase-glo luminescent assay relative to control.
Assay [8] in a line: Selectivity ratio of IC50 for antiproliferative activity against human MCF7 cells to IC50 for antiproliferative activity against human U-87 MG cells. The assay is classed as functional.
The nature of assay [9]: Selectivity ratio of IC50 for antiproliferative activity against human A549 cells to IC50 for antiproliferative activity against human NCI-H1975 cells overexpressing EGFR L858R/T790M mutant. The assay is classed as functional.
Assay [10] is described as follows: Selectivity ratio of IC50 for antiproliferative activity against human HeLa cells to IC50 for antiproliferative activity against paclitaxel-resistant human HeLa cells. It counts as functional.

As for `CS(=O)(=O)N1CCN(Cc2ccc(-c3nc(-c4ccc(NC(=O)Nn5cnnc5)cc4)nc(N4CCOCC4)n3)s2)CC1`, in assay [1], the inhibition was found to be 46.8%. The IC50 was 1.74 µM in assay [2]; 1.82 µM in the assay with MCF7; 26.9 µM in assay [3]; above 100 µM in assay [4]; 50.4 µM in the assay with A549; above 100 µM with NCI-H460. Also, the IC50 in the assay on NCI-H1975 was above 100 µM; with HeLa [5], 42.8 µM; with HeLa [6] it was above 100 µM.
Take `CS(=O)(=O)N1CCN(Cc2ccc(-c3nc(-c4ccc(NC(=O)Nc5nn[nH]n5)cc4)nc(N4CCOCC4)n3)s2)CC1`: the IC50 in the assay on MCF7 was 15.2 µM; in assay [3] it was above 100 µM; in assay [4] it was above 100 µM; in the assay with A549, 2.82 µM; with NCI-H460, above 100 µM; in the assay on NCI-H1975, above 100 µM. The IC50 in the assay on HeLa [5] was 48.5 µM; in the assay with HeLa [6], above 100 µM.
For `CS(=O)(=O)N1CCN(Cc2ccc(-c3nc(-c4ccc(NC(=O)Nc5ccncn5)cc4)nc(N4CCOCC4)n3)s2)CC1`, the inhibition in assay [1] was found to be 43.4%; in assay [7] it was 86.8%. Further, the IC50 in the assay with MCF7 was 30.7 µM; in [3] it was above 100 µM; in assay [4], 25.2 µM; in the assay on A549 it was 44.9 µM; in the assay with NCI-H460, above 100 µM; with NCI-H1975 it was 5.53 µM. Besides, the IC50 with HeLa [5] is 28.2 µM; with HeLa [6], above 100 µM. The “Ratio IC50” value was 1.21 in assay [8] and 8.12 in assay [9].
Regarding `CS(=O)(=O)N1CCN(Cc2ccc(-c3nc(-c4ccc(NC(=O)NN5CCOCC5)cc4)nc(N4CCOCC4)n3)s2)CC1`, the IC50 was 9.11 µM in the assay on MCF7; 15.9 µM in assay [3]; 26.9 µM in [4]; 20.5 µM with A549; above 100 µM in the assay with NCI-H460; 0.11 µM with NCI-H1975. In addition, the IC50 with HeLa [5] worked out at 31.2 µM; in the assay on HeLa [6] it was 22.6 µM. In addition, the “Ratio IC50” value is recorded as 0.34 in assay [8], 186.72 in assay [9] and 1.38 in assay [10].
Turning to `CS(=O)(=O)N1CCN(Cc2ccc(-c3nc(-c4ccc(NC(=O)Nc5cncnc5)cc4)nc(N4CCOCC4)n3)s2)CC1`, the IC50 in the assay with MCF7 is 7.61 µM; in [3] it was 20.1 µM; in [4], 14.9 µM; in the assay with A549, 10.8 µM; in the assay on NCI-H460, above 100 µM; in the assay on NCI-H1975 it was 6.78 µM. Moreover, the results for the IC50 in the assay on HeLa [5] and in the assay on HeLa [6] were 15 µM and 28 µM, respectively. Besides, the “Ratio IC50” value is listed as 0.51 in assay [8], 1.59 in assay [9] and 0.54 in [10].
On to `Cn1ccnc1NC(=O)Nc1ccc(-c2nc(-c3ccc(CN4CCN(S(C)(=O)=O)CC4)s3)nc(N3CCOCC3)n2)cc1`, for which the 50% inhibitory concentration (IC50) in the assay on MCF7 was above 100 µM; in [4], above 100 µM; in the assay on A549 it was 53.9 µM; with NCI-H460, above 100 µM; with NCI-H1975, 7.86 µM; with HeLa [5], 13.8 µM. Moreover, in the assay on HeLa [6], the 50% inhibitory concentration (IC50) was above 100 µM.
In assay [1], `CS(=O)(=O)N1CCN(Cc2ccc(-c3nc(-c4ccc(NC(=O)Nc5ccccn5)cc4)nc(N4CCOCC4)n3)s2)CC1` came in with an inhibition of 16.1%. Also, the IC50 amounted to 3 µM in [2]; 3.34 µM with MCF7; 3.52 µM in assay [3]; 10.5 µM in assay [4]; 10.1 µM in the assay on A549; 7.57 µM in the assay on NCI-H460. The figures for the IC50 with NCI-H1975, in the assay on HeLa [5] and in the assay on HeLa [6] were 0.076 µM, 6.01 µM and 9.27 µM, respectively.
In the case of `CS(=O)(=O)N1CCN(Cc2ccc(-c3nc(-c4ccc(NC(=O)Nc5ncccn5)cc4)nc(N4CCOCC4)n3)s2)CC1`, the inhibition stood at 91.3% in assay [1] and 93% in assay [7]. The IC50 in the assay with MCF7 is 12.5 µM; in assay [3], above 100 µM; in [4] it was above 100 µM; with A549, 13.1 µM; with NCI-H460, 17.9 µM; in the assay on NCI-H1975, 12.7 µM. The IC50 was found to be 15.2 µM with HeLa [5] and 12.6 µM in the assay on HeLa [6]. Further, the “Ratio IC50” value amounted to 1.03 in assay [9] and 1.21 in assay [10].
